In PubChem BioAssay (NCI):
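Test compounds were applied to cells in 96-well plates for 48 hours at 5 doses. At the GI50, growth is halved. TGI: total growth inhibition.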 *1 amine or outer side, *2 acyl side, *3 side chain or, on linkers, in order; H or OH if unused. Where a SMILES comes first, the peptide text is derived from it. Bridges are numbered along the chain shown (N, C = ends). [ ]: non-standard residue; d: D form. X59 = COc1c(N[*:1])cccc1C(=O)O[C@H](C(=O)[C@H](C)C(=O)[*:2])C(C)C; X58 = CC(C)C[C@H](C(=O)[*:2])C(C)C(=O)C1CCCN1[*:1]; NMeY = CN[C@@H](Cc1ccc(O)cc1)C(=O)O; Lac = C[C@H](O)C(=O)O

Key:
Assay in all cases: DTP human tumour cell line panel, 48 h
[1] = system: SNB-19 CNS
[2] = system: OVCAR-4 ovarian
[3] = system: HOP-92 NSCLC
[4] = system: LOX IMVI melanoma
[5] = system: SF-268 CNS
[6] = system: HCC-2998 colon
[7] = system: UACC-257 melanoma
[8] = system: MALME-3M melanoma
[9] = system: U251 CNS
[10] = system: RPMI-8226 leukemia
[11] = system: UO-31 renal
[12] = system: SW-620 colon
[13] = system: SK-MEL-5 melanoma
[14] = system: K-562 leukemia
[15] = system: SN12C renal
[16] = system: PC-3 prostate

Compound | TGI [1] [µM] | TGI [2] [µM] | TGI [3] [µM] | TGI [4] [µM] | TGI [5] [µM] | TGI [6] [µM] | TGI [7] [µM] | TGI [8] [µM] | TGI [9] [µM] | TGI [10] [µM] | TGI [11] [µM] | TGI [12] [µM] | TGI [13] [µM] | TGI [14] [µM] | TGI [15] [µM] | TGI [16] [µM] | GI50 [9] [µM] | GI50 [13] [µM] | GI50 [16] [µM]
CC[C@H]1C=CCC[C@@]2(C[C@@H]3CC[C@H]4[C@@H](C(=O)OCCCCCCCCCCCCCCCC(=O)N(CCCNC(C)=O)C[C@H](CCNC(C)=O)OC(C)=O)[C@@]5(CCC[C@@H](C)O5)NC(=[N+]34)N2)O1 | 3.07 | 3.16 | 2.43 | 3.16 | 3.38 | 2.62 | 2.68 | 2.99 | 2.11 | 0.554 | 3.16 | 3.25 | 2.57 | 2.41 | 3.54 | 2.26 | – | – | –
Cc1ccccc1C1CC(=O)CC(c2ccccc2C)C12C(=O)NC(=S)NC2=O (stereo not given) | > 100 | > 100 | > 100 | 35.8 | > 100 | 25.2 | 52.4 | 78.4 | > 100 | 38.6 | 43.2 | 90.4 | 32.7 | > 100 | 67 | 70 | – | – | –
N#CCN1CCN(CC#N)CCN(CC#N)CCN(CC#N)CC1 | > 100 | > 100 | > 100 | > 100 | > 100 | > 100 | > 100 | > 100 | > 100 | > 100 | > 100 | > 100 | > 100 | > 100 | > 100 | > 100 | – | – | –
O=c1cc(-c2ccc3ccccc3c2)[nH]c2ncccc12 | > 100 | > 100 | 75.6 | > 100 | > 100 | > 100 | > 100 | > 100 | > 100 | 60.7 | > 100 | > 100 | 16.5 | 12 | > 100 | > 100 | 4.35 | 3.46 | 10.4
CC(C)(C)OC(=O)NCC(=O)N(CCc1ccc(Cl)c(Cl)c1)CCN1CCCC1 | 34.4 | 54.9 | 19.4 | 29.3 | 31.6 | 16.2 | 29.9 | 36.4 | 28.7 | 23.8 | 28.7 | 37.3 | 28.4 | 25.1 | 32.7 | 30.3 | – | – | –
[O-]/[N+](=N/c1ncc(-c2ccccc2)cn1)c1ncc(-c2ccccc2)cn1 | > 100 | > 100 | > 100 | > 100 | > 100 | > 100 | > 100 | > 100 | > 100 | > 100 | > 100 | > 100 | > 100 | > 100 | > 100 | > 100 | – | – | –
COCCNC1CCC(=O)c2[nH]c3ccccc3c21 (stereo not given) | > 100 | > 100 | > 100 | > 100 | > 100 | > 100 | > 100 | > 100 | > 100 | > 100 | > 100 | > 100 | > 100 | > 100 | > 100 | > 100 | – | – | –
COc1ccc(C(c2cc(OC)c(OC)c(OC)c2)N2C(=O)CCC2C(=O)O)cc1 (stereo not given) | > 100 | > 100 | > 100 | > 100 | > 100 | > 100 | > 100 | > 100 | > 100 | > 100 | > 100 | > 100 | > 100 | > 100 | > 100 | > 100 | – | – | –
CC1=NN(C(=O)CC(=O)Nc2ccc(Cl)cc2)C(=O)C1N=Nc1ccc(S(=O)(=O)c2ccc(N=NC3C(=O)N(C(=O)CC(=O)Nc4ccc(Cl)cc4)N=C3C)cc2)cc1 (stereo not given) | > 100 | > 100 | > 100 | > 100 | > 100 | > 100 | > 100 | > 100 | 59.6 | > 100 | > 100 | > 100 | > 100 | > 100 | > 100 | > 100 | – | – | –
C=CC[C@@]12CCC(=O)C=C1CCCC2=O | > 100 | > 100 | > 100 | > 100 | > 100 | > 100 | > 100 | > 100 | > 100 | > 100 | > 100 | > 100 | > 100 | > 100 | > 100 | > 100 | – | – | –
CCOC(=O)C(C)c1nc2cc(C(F)(F)F)ccc2[nH]c1=O (stereo not given) | > 100 | > 100 | > 100 | > 100 | > 100 | > 100 | > 100 | > 100 | > 100 | > 100 | > 100 | > 100 | > 100 | > 100 | > 100 | > 100 | – | – | –
O=C1CC2(CCNCC2)C(=O)N1N1CCCCC1 | > 100 | > 100 | > 100 | > 100 | > 100 | > 100 | > 100 | > 100 | > 100 | > 100 | > 100 | > 100 | > 100 | > 100 | > 100 | > 100 | – | – | –
COc1ccc2cc(/C=N\NC(=O)Nc3ccc([N+](=O)[O-])cc3)ccc2c1 | 20.1 | 15.9 | 32.4 | 17.6 | > 31.6 | 20.1 | 20.7 | 22.4 | 26.6 | 29.1 | 18.8 | > 31.6 | 17.7 | > 31.6 | 18 | 18.8 | – | – | –
O=C(c1ccc(Cl)c(Cl)c1)N(C(=O)N1CCN(c2ccccc2)CC1)S(=O)(=O)c1ccccc1 | > 100 | 65.6 | 84.4 | 40.5 | > 100 | > 100 | > 100 | > 100 | 62.9 | > 100 | 50.3 | > 100 | 84.7 | > 100 | > 100 | 93.5 | – | – | –
O=C1O/C(=C(/Cl)c2c3ccccc3cc3ccccc23)c2ccccc21 | > 100 | 90.3 | 50.3 | 8.04 | > 100 | > 100 | > 100 | > 100 | > 100 | 66.4 | > 100 | > 100 | 30.7 | > 100 | > 100 | > 100 | – | – | –
COc1ccc(OC)c([N+](=O)[O-])c1-c1nc2sc(C)c(C)n2c1/C=N/N=C(N)N | > 100 | > 100 | > 100 | > 100 | > 100 | > 100 | > 100 | > 100 | > 100 | 89.9 | > 100 | > 100 | > 100 | > 100 | > 100 | > 100 | – | – | –
COc1ccc(C[C@H]2C(=O)O[C@H](C)[C@H](NC(=O)[C@@H](CC(C)C)C(C)C(=O)C3CCCN3C(=O)[C@H](C)O)C(=O)Nc3cccc(c3OC)C(=O)O[C@@H](C(C)C)C(=O)[C@H](C)C(=O)N[C@@H](CC(C)C)C(=O)N3CCC[C@H]3C(=O)N2C)cc1 (stereo not given in full) (H-[Lac][X58]T[X59]LP[NMeY](Me); ester 3-C) | > 12.5 | > 12.5 | > 12.5 | > 12.5 | > 12.5 | > 12.5 | > 12.5 | > 12.5 | > 12.5 | 10.8 | > 12.5 | > 12.5 | > 12.5 | > 12.5 | > 12.5 | > 12.5 | – | – | –
O=C1Nc2ccccc2/C1=N/N1C(=O)/C(=C/c2ccccc2S)N=C1c1ccccc1 | > 100 | > 100 | > 100 | > 100 | > 100 | > 100 | > 100 | > 100 | > 100 | > 100 | > 100 | > 100 | > 100 | > 100 | > 100 | > 100 | – | – | –
Cc1c(-c2ccccc2)c(C#N)c2nnn(C)c(=O)n12 | > 100 | > 100 | > 100 | > 100 | > 100 | > 100 | > 100 | > 100 | > 100 | > 100 | > 100 | > 100 | > 100 | > 100 | > 100 | > 100 | – | – | –
CC(C)=CC[C@H]1C[C@@]2(CC=C(C)C)C(=O)/C(=C(/O)c3ccccc3)C(=O)[C@](CC=C(C)C)(C2=O)C1(C)C | 20.4 | 26.4 | 19.1 | 17 | 39.4 | 14.4 | 19.7 | 27.9 | 20.8 | > 100 | 13.3 | 54.9 | 17.8 | 50.4 | 14.8 | 19.3 | – | – | –
Cc1ccc(/C=C2\CCCCCC2=O)cc1 | > 100 | > 100 | > 100 | > 100 | > 100 | > 100 | > 100 | > 100 | > 100 | > 100 | > 100 | > 100 | > 100 | > 100 | > 100 | > 100 | – | – | –
CC1(C)N([O-])[N+](=O)C1(Br)c1ccccc1 (stereo not given) | > 100 | > 100 | > 100 | > 100 | > 100 | > 100 | > 100 | > 100 | > 100 | > 100 | > 100 | > 100 | > 100 | > 100 | > 100 | > 100 | – | – | –
CC(C)(C)CN1[C@@H]2CCCC[C@H]2N(CC(C)(C)C)P1(=O)C(O)/C=C/c1ccccc1 (stereo not given in full) | > 100 | > 100 | 67 | 37.3 | > 100 | 92.6 | > 100 | 87.7 | > 100 | 56.1 | > 100 | > 100 | 38.9 | > 100 | 57.5 | > 100 | – | – | –
O=S1(=O)c2ccccc2-c2nccc3ccnc1c23 | 91.3 | > 100 | > 100 | > 100 | > 100 | 28.6 | > 100 | > 100 | > 100 | 85.6 | 59 | > 100 | 27.7 | > 100 | 94.1 | > 100 | – | – | –
Nc1ncc(N)c(NCC2(CO)CC(CCc3ccccc3)C2)n1 (stereo not given) | 23.4 | 20.8 | 11.5 | 16.6 | > 43 | 23.7 | 22.8 | 23.7 | 19.6 | 4.78 | 15 | 23.9 | 14 | 12.9 | 24.9 | 18.9 | – | – | –
CC(C)(C)OC(=O)NC(Cc1ccc(OCc2ccccc2)cn1)C(=O)O (stereo not given) | > 100 | > 100 | > 100 | > 100 | > 100 | > 100 | > 100 | > 100 | > 100 | > 100 | > 100 | > 100 | > 100 | > 100 | > 100 | > 100 | – | – | –
CCOC(=O)CON=c1c2ccccc2ccc2ccccc12 | > 100 | > 100 | > 100 | > 100 | > 100 | > 100 | > 100 | > 100 | > 100 | > 100 | > 100 | > 100 | > 100 | > 100 | > 100 | > 100 | – | – | –
